From patent US20210137990A1, “METHODS FOR EXP ANDING ADIPOSE-DERIVED STEM CELLS” (CELLECT BIOTHERAPEUTICS LTD., priority 2018, published 2021)
Entries after “also recorded” stand apart in the source; their conditions may differ. Residues, ends and D or L forms follow the SMILES beside them. *: point of attachment. Cbz = O=C(OCc1ccccc1)*; CH2F = FC*

Columns and labels:
ASCs [1] = test: ASC proliferation with Fas-L and inhibitors for 4 days, cell counts; format: cell-based, human
Description: (§1) The dual effect of Fas-L on the apoptosis and proliferation of ASCs, can be mediated solely by canonical Fas-L signaling or through two distinct pathways. To distinguish between these possibilities, ASCs were either left untreated, treated with Fas-L only or treated simultaneously with Fas-L and with the pan-caspase inhibitor […], for 4 days. Importantly, to better evaluate the apoptotic cue of Fas-L, a different Fas-L derivative (mega-Fas-L), which induces high rates of apoptosis in passage 3 ASCs, was used in the current experiments. Sub-G1 proportions and cell numbers were determined by PI cell-cycle flow cytometry analysis and standard cell counts respectively. The experiment was repeated 3 times using cells from 3 independent patients.
Accordingly, cultured Passage 2-4 ASCs were treated with a combination of mega Fas-L, Z-VAD-fmk, LY294002 (PI3K inhibitor), AZD6244 (ERK-1/2 inhibitor) and SP600125 (JNK inhibitor) for 4 days.
After 4 days, cells were removed from plates by trypsin and cells were counted using a standard cell counter. The experiment was repeated 3 times using cells from 3 independent patients.
To test the effects of inhibitors on proliferation of mature ASCs (P2 and P3 ASCs), cells were seeded into 24-well plates (10.000 cells/well) and allowed to attach and grow for 24 h. Then, medium was exchanged for fresh normal growth medium or growth medium supplemented with Fas-L or with Fas-L and one of the inhibitors. Cells were then cultured for 4 days.
At the end of the incubation period, adherent cells were trypsinized, collected and counted with a TC10 Automated Cell Counter (Bio-rad).

ASCs [2] = test: ASC apoptosis with Fas-L and inhibitors for 4 days, sub-G1 by PI cell-cycle flow cytometry; format: cell-based, human; conditions: Z-VAD-fmk added to mega-Fas-L
Description: as §1
Cells were harvested and fixed with 70% ethanol/PBS, treated with RNaseA 0.4 mg/ml (Sigma) and stained with propidium iodide (PI) 0.1 mg/ml (Sigma).
All labeled cells were analyzed using a FACS Canto II flow cytometer (Becton Dickinson, San Jose, Calif., USA). At least 10.000 events were recorded. Data analysis was performed using the FlowJo software (Tree Star, Ashland, Oreg., USA).

Row | SMILES | ASC counts compared to cells treated with Fas-L only (ASCs [1]; P2-4 ASCs, mega Fas-L plus inhibitor, 4 days) | cell quantities (ASCs [1]; P2-4 ASCs, mega Fas-L, Z-VAD-fmk plus inhibitor, 4 days) | Fas-L-dependent proliferation of ASCs (ASCs [1]; inhibitor added to Fas-L) | Fas-L-induced apoptosis of ASCs (sub-G1) (ASCs [2]) | cell yield (ASCs [1]; Fas-L and Z-VAD-fmk together, 4 days, vs untreated) | Fas-L-induced ASC proliferation (ASCs [1]; Z-VAD-fmk added to mega-Fas-L, 4 days) | cell expansion (ASCs [1]; Z-VAD-fmk only, 4 days)
1 | Cn1cnc2c(F)c(Nc3ccc(Br)cc3Cl)c(C(=O)NOCCO)cc21 [AZD6244] | reduced ASC counts | comparable to untreated control | could be inhibited | – | – | – | –
2 | COC(=O)C[C@H](NC(=O)[C@H](C)NC(=O)[C@@H](NC(=O)OCc1ccccc1)C(C)C)C(=O)CF [Z-VAD-fmk] (Cbz-Val-Ala-Asp(OMe)-CH2F) | – | – | – | considerably attenuated; also recorded: near-complete inhibition | doubled cell yield | not affected; also recorded: without impacting; also recorded: minor to negligible effect | No such increased expansion
